Data from ChEMBL document CHEMBL5465560, “Selectivity Literature for EUbOPEN Chemogenomic Library” (2024).

How the values were obtained:
[1] = molecular target: Mitogen-activated protein kinase 8 (Homo sapiens, UniProt P45983); details: at 10 µM
[2] = molecular target: Dual specificity protein kinase CLK3 (Homo sapiens, UniProt P49761); assay: Selectivity interaction (KinomeScan (DiscoverX)) EUB0000655a CLK3; details: at 10 µM
[3] = Selectivity interaction (KinomeScan (DiscoverX)) EUB0000655a CDPK1; details: at 10 µM
[4] = molecular target: Mitogen-activated protein kinase kinase kinase kinase 5 (Homo sapiens) (UniProt Q9Y4K4); assay: Selectivity interaction (KinomeScan (DiscoverX)) EUB0000666a MAP4K5; details: at 10 µM
[5] = molecular target: Focal adhesion kinase 1 (Homo sapiens, UniProt Q05397); assay: Selectivity interaction (KinaseProfiler screening (Millipore)) EUB0000601a PTK2; details: at 3 µM
[6] = system: Mast/stem cell growth factor receptor Kit (Homo sapiens), P10721 [T670I]; assay: (§1) Selectivity interaction (Kinase panel (Z-LYTE Assay)) EUB0001632a KIT; details: at 10 µM
[7] = molecular target: Mast/stem cell growth factor receptor Kit (Homo sapiens, UniProt P10721); assay: as §1; details: at 10 µM
[8] = molecular target: Calcium/calmodulin-dependent protein kinase kinase 2 (Homo sapiens) (UniProt Q96RR4); assay: Selectivity interaction (Kinase panel (Invitrogen)) EUB0000639a CAMKK2; details: at 200 nM
[9] = molecular target: Serine/threonine-protein kinase 24 (Homo sapiens) (UniProt Q9Y6E0); assay: Selectivity interaction (ActivX KiNativ screen (kinase selectivity in THP-1 cell lysates)) EUB0000639a STK24; format: subcellular; details: lysate, at 0.2 µM
[10] = molecular target: Dual specificity tyrosine-phosphorylation-regulated kinase 1B (Homo sapiens, UniProt Q9Y463); assay: Selectivity interaction (KinomeScan (DiscoverX)) EUB0000607a DYRK1B; details: at 10 µM
[11] = molecular target: Serine/threonine-protein kinase pim-2 (Homo sapiens, UniProt Q9P1W9); assay: Selectivity interaction (SelectScreen profiling (Invitrogen)) EUB0000607a PIM2; details: at 2 µM
[12] = molecular target: T1, Phosphorylase b kinase gamma catalytic chain, liver/testis isoform (Homo sapiens) (UniProt P15735); assay: Selectivity interaction (KinomeScan (DiscoverX)) EUB0001049a PHKG2; details: at 1 µM
T1 sequence (whole entry): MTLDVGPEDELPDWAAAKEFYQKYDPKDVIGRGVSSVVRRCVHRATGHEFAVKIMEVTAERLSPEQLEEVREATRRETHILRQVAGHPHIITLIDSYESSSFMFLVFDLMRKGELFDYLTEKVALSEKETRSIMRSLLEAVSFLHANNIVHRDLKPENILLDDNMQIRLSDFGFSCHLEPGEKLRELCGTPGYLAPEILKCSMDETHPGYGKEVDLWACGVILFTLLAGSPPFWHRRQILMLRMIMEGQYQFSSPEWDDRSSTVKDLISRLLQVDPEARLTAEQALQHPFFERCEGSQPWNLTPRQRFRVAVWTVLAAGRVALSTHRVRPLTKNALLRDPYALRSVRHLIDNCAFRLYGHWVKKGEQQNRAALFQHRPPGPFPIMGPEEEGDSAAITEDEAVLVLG

[13] = system: Phosphatidylinositol 4,5-bisphosphate 3-kinase catalytic subunit alpha isoform (Homo sapiens), P42336 [Q546K]; details: at 10 µM
[14] = molecular target: T2, Mitogen-activated protein kinase kinase kinase kinase 2 (Homo sapiens) (UniProt Q12851); assay: Selectivity interaction (ActivX KiNativ screen (ex vivo kinase selectivity in human PBMCs)) EUB0001619a MAP4K2; format: cell-based; details: PBMC, at 1 µM
T2 sequence (whole entry): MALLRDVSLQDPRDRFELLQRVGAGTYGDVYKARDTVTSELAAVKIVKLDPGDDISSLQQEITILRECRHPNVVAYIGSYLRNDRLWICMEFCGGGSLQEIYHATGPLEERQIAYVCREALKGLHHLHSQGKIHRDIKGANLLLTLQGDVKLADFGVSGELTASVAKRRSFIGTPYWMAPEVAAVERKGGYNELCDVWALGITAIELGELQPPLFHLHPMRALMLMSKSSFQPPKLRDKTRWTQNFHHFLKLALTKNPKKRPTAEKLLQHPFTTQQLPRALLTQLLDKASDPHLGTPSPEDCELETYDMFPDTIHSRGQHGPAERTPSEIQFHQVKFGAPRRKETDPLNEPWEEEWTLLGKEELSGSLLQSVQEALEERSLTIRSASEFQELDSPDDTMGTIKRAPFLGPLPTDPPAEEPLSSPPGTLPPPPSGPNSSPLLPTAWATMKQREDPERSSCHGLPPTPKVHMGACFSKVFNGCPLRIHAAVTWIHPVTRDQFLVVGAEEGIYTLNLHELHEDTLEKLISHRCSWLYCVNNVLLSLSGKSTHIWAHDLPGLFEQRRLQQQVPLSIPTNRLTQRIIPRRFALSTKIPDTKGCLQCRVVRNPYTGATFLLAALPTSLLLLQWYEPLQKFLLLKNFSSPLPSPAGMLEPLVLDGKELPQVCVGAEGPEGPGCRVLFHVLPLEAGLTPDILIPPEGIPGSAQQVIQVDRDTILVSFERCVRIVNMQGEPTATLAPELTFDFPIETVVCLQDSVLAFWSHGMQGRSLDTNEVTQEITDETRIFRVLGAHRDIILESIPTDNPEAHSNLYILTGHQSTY

[15] = molecular target: T3, Serine/threonine-protein kinase 17B (Homo sapiens) (UniProt O94768); assay: Selectivity interaction (KinomeScan (DiscoverX)) EUB0001619a STK17B; details: at 1 µM
T3 sequence (whole entry): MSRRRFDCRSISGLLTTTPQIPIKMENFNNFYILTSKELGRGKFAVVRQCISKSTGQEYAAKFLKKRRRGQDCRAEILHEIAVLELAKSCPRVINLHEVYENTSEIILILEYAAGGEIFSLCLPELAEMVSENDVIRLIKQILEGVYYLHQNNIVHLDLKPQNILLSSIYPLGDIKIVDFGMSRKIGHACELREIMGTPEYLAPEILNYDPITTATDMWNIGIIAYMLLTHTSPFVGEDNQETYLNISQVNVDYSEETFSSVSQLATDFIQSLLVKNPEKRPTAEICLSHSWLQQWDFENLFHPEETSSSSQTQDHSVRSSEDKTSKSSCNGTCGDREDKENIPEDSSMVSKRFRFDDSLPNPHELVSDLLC

Chain of Dual specificity protein kinase CLK3 (P49761 whole entry, looked up): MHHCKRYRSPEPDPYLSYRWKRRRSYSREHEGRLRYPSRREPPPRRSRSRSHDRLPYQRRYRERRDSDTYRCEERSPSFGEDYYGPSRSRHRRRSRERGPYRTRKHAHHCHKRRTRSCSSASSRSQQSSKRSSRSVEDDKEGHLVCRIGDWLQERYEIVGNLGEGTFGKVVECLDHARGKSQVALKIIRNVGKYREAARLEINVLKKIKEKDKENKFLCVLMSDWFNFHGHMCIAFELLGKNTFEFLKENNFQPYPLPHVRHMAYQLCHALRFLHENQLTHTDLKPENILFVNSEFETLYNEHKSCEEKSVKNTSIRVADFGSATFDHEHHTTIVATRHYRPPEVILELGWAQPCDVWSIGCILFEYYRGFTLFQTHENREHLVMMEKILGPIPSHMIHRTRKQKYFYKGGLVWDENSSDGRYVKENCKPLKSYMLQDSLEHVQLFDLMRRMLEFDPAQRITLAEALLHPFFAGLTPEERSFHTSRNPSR
Chain of Mast/stem cell growth factor receptor Kit (P10721 whole entry): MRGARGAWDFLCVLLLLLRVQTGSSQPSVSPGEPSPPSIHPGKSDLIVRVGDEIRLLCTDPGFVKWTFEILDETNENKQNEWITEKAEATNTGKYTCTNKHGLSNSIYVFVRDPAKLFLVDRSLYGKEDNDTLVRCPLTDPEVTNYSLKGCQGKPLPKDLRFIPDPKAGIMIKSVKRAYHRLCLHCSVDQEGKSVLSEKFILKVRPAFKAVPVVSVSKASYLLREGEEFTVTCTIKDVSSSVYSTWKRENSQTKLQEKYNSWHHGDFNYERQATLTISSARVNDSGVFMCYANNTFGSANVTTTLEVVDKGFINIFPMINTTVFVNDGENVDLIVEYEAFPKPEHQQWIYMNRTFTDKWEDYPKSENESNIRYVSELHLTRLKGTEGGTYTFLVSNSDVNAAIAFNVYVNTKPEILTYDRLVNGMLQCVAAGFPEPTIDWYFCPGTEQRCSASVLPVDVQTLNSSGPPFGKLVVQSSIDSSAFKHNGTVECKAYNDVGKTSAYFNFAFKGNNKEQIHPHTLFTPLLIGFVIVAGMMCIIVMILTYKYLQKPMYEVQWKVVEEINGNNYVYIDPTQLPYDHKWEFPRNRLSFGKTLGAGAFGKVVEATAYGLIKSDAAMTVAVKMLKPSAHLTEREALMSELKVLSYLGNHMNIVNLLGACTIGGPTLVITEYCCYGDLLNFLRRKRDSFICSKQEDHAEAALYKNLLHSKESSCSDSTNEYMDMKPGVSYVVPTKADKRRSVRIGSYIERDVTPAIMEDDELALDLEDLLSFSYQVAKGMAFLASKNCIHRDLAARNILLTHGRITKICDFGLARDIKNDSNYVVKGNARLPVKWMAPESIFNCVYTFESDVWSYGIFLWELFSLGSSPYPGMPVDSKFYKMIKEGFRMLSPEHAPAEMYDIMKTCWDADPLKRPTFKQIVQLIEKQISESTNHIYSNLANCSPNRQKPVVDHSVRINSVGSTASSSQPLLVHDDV
Chain of Mitogen-activated protein kinase 8 (P45983 whole entry): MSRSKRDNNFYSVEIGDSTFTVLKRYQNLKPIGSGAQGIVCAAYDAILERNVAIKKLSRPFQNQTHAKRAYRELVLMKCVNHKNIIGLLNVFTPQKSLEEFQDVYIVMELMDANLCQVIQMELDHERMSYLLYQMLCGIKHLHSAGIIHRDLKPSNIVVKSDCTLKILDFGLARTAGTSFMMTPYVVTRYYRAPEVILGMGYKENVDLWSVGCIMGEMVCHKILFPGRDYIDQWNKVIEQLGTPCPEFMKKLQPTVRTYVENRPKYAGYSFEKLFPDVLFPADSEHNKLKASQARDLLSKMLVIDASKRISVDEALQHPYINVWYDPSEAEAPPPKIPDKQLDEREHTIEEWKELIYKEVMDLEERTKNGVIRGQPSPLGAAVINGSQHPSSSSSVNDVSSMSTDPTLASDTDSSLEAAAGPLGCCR
Chain of Serine/threonine-protein kinase 24 (Homo sapiens) (Q9Y6E0 whole entry, looked up): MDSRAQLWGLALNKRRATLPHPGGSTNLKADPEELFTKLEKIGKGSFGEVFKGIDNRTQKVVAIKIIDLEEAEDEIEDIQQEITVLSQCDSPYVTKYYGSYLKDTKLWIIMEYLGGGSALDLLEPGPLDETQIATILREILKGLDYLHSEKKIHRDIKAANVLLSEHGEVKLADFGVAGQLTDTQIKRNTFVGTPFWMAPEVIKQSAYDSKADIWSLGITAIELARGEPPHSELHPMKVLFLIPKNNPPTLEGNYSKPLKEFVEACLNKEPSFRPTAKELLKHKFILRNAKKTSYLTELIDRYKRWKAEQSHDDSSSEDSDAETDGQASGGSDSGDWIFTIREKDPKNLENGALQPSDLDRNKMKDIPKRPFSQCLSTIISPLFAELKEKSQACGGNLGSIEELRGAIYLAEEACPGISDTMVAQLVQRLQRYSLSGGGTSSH
Chain of Calcium/calmodulin-dependent protein kinase kinase 2 (Homo sapiens) (Q96RR4 2-588 limits assumed): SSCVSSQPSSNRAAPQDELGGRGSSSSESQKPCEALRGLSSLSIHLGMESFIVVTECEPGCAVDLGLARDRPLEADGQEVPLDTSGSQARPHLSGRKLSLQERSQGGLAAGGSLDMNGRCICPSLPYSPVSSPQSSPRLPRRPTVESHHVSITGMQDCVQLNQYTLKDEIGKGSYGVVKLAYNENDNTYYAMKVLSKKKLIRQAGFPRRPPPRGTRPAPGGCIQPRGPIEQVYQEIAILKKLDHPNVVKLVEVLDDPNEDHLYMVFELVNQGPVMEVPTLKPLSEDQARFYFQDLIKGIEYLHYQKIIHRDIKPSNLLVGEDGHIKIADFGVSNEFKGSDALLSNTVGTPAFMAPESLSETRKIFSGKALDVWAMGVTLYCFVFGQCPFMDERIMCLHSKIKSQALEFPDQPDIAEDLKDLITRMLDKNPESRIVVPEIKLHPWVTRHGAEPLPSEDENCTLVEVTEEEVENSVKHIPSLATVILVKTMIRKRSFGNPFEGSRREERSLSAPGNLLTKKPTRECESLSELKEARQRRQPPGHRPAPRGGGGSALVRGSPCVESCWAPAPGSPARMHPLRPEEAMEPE
Chain of Focal adhesion kinase 1 (Q05397 2-1052 limits assumed): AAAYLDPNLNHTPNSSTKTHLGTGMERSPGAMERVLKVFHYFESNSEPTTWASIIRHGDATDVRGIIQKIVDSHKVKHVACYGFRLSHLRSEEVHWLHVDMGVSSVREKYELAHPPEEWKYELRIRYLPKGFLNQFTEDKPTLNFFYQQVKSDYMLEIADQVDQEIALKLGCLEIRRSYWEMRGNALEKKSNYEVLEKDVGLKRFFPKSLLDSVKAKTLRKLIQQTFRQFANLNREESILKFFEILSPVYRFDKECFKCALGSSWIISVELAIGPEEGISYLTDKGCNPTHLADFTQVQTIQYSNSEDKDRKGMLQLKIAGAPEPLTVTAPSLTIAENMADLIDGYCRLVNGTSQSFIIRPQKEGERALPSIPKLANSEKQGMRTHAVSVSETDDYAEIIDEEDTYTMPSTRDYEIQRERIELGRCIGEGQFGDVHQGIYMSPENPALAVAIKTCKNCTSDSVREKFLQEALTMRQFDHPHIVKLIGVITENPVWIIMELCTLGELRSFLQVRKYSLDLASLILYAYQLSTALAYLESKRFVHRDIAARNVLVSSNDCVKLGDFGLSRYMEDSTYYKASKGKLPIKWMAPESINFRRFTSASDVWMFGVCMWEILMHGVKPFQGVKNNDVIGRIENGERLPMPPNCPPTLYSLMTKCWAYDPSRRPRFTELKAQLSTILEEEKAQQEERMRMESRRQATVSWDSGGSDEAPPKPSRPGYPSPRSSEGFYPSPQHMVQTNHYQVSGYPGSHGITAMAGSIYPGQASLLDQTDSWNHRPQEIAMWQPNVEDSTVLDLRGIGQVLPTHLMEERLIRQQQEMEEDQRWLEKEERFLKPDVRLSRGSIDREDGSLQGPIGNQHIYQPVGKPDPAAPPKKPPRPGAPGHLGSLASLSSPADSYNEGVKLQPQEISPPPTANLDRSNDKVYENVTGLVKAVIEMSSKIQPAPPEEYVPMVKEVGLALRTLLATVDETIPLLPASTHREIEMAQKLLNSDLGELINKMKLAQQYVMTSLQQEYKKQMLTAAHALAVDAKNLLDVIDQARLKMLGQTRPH
Chain of Phosphatidylinositol 4,5-bisphosphate 3-kinase catalytic subunit alpha isoform (Homo sapiens), P42336 [Q546K] (P42336 whole entry Q546K, canonical isoform): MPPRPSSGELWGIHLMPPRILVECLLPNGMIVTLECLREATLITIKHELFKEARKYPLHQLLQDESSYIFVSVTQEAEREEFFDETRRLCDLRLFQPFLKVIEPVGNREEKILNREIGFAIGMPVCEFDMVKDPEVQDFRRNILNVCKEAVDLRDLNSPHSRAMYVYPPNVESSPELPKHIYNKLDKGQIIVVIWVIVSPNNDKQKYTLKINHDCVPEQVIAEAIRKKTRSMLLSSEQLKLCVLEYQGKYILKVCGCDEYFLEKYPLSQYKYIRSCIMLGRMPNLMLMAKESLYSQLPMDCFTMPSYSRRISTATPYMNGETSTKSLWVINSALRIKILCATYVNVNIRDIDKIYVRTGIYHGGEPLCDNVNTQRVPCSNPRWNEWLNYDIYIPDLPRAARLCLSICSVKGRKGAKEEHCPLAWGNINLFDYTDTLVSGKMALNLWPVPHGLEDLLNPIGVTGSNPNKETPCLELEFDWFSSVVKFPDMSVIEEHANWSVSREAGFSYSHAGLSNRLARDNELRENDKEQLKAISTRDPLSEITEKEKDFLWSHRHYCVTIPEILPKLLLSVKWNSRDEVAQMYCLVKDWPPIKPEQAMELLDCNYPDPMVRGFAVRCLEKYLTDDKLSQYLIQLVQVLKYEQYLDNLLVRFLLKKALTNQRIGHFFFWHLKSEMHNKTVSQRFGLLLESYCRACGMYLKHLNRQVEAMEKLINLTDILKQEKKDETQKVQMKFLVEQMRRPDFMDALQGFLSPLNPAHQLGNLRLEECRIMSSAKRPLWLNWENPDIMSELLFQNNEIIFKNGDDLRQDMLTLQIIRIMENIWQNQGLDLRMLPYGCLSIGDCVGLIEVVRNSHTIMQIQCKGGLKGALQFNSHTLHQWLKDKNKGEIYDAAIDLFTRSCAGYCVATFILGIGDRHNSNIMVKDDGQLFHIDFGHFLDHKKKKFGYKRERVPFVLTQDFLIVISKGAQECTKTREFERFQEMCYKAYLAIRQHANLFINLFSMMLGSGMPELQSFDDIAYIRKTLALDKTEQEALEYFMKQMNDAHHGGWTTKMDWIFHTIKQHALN

For CCN(CC)CCCCNc1ncc2cc(-c3cc(OC)cc(OC)c3)c(NC(=O)NC(C)(C)C)nc2n1, the % of control [1] was 100%.

Molecule CN(C)CCOc1ccc(-c2nc(-c3ccncc3)c(-c3ccc4c(c3)CC/C4=N\O)[nH]2)cc1 has a % of control [2] of 98% and a % of control [3] of 15%.

Work on O=C(NOC[C@H](O)CO)c1ccc(F)c(F)c1Nc1ccc(I)cc1F yielded a % of control [4] of 69%.

CCc1cc(Nc2nccc(-c3c(-c4ccc(OC)c(C(=O)Nc5c(F)cccc5F)c4)nc4ccccn34)n2)c(OC)cc1N1CCC(N2CCN(S(C)(=O)=O)CC2)CC1 gave a % of inhibition [5] of 51%.

In the case of Cn1cc(-n2cnc3c(NCc4nc5cc(Cl)c(Cl)cc5[nH]4)nc(N4CCOCC4)nc32)cn1, the % of control [6] is reported as 0.683% and the % of control [7] is reported as 7.07%.

CC[C@@H]1[C@H](F)C(=O)N[C@@H]1COc1nccc2cc(C(N)=O)c(OC)cc12 [ZIMLOVISERTIB] gave a % of inhibition [8] of -1.97% and a % of inhibition [9] of 5.6%.

Molecule CNC(=O)Nc1ccc(-c2nc(N3CC4CCC(C3)O4)c3cnn(C4CCC5(CC4)OCCO5)c3n2)cc1 has a % of control [10] of 100% and a % of inhibition [11] of 3%.

COc1cc(Nc2nc(C)cc(-c3cnn4nc(OC)ccc34)n2)cc(C(F)(F)F)c1 showed a % of control [12] of 100%.

Molecule COCC(=O)NC/C=C/c1ccc2ncnc(Nc3ccc(Oc4ccc(C)nc4)c(C)c3)c2c1 [CP-724714] has a % of control [13] of 38%.

Work on N#Cc1cccc(-c2c[nH]c3ncnc(N4CCOCC4)c23)c1 yielded a % of inhibition [14] of 31% and a % of control [15] of 100%.
